PubChem BioAssay (NCI)
“And” between values parts separate entries of the source, which are not always exact repeats. Equal entries are not always repeated.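 Five compound concentrations were applied to cells in 96-well plates for 48 hours; endpoints were derived by simple linear interpolation of the resulting dose-response curve. Abbreviation: GI50, concentration required for 50% inhibition of growth. TGI: concentration producing complete growth inhibition.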

Key:
Test in all cases: NCI-60 cell line screen, 48 h
[1] = system: HCT-116 colon
[2] = system: HOP-92 NSCLC
[3] = system: HS 578T breast
[4] = system: KM12 colon
[5] = system: NCI-H460 lung
[6] = system: RXF 393 renal
[7] = system: SF-539 CNS
[8] = system: SN12C renal
[9] = system: SW-620 colon
[10] = system: UACC-257 melanoma

| Compound | GI50 [1] | TGI [1] | GI50 [2] | TGI [2] | GI50 [3] | TGI [3] | GI50 [4] | TGI [4] | GI50 [5] | TGI [5] | GI50 [6] | TGI [6] | GI50 [7] | TGI [7] | GI50 [8] | TGI [8] | GI50 [9] | TGI [9] | GI50 [10] | TGI [10] |
| --- | --- | --- | --- | --- | --- | --- | --- | --- | --- | --- | --- | --- | --- | --- | --- | --- | --- | --- | --- | --- |
| CN[C@]12CC3(C=CC(=O)C=C3)O[C@@]1(Cc1ccc(OC)cc1)N(C)C(=O)N2 | 0.812 µM | 7.98 µM | 2.15 µM | 4.73 µM | 4.62 µM | > 100 µM | 1.69 µM | 3.54 µM | 3.44 µM | 13.7 µM | 1.82 µM | 3.6 µM | 1.9 µM | 3.97 µM | 1.7 µM | 7.13 µM | 2.1 µM | 6.99 µM | 3.52 µM | 19.8 µM |
| S=c1nc2[nH]ncc2c(N/N=C/c2ccccc2)[nH]1 | 87.9 µM | > 100 µM | > 100 µM | > 100 µM | > 100 µM | > 100 µM | > 100 µM | > 100 µM | 93.6 µM | > 100 µM | > 100 µM | > 100 µM | > 100 µM | > 100 µM | > 100 µM | > 100 µM | > 100 µM | > 100 µM | > 100 µM | > 100 µM |
| CCOC(=O)c1ccc(N(CCOS(C)(=O)=O)CCOS(C)(=O)=O)cc1C | 33.4 µM | > 100 µM | 36.7 µM | > 100 µM | 64.1 µM | > 100 µM | 90.4 µM | > 100 µM | 27.8 µM | > 100 µM | 17.8 µM | 33.3 µM | 23.9 µM | > 100 µM | 24.7 µM | > 100 µM | 88.2 µM | > 100 µM | 69.6 µM | > 100 µM |
| Nc1ncnc2c1nc(-c1ccccc1)n2C1OC(CO)C(O)C1O (stereo not given) |  | > 100 µM |  | > 100 µM |  | > 100 µM |  | > 100 µM |  | > 100 µM |  | > 100 µM |  | > 100 µM |  | > 100 µM |  | > 100 µM |  | > 100 µM |
| Cc1cccc2c(N=Nc3ccc(S(N)(=O)=O)cc3)c(O)[nH]c12 | > 25 µM | > 25 µM | > 25 µM | > 25 µM | > 25 µM | > 25 µM | > 25 µM | > 25 µM | > 25 µM | > 25 µM | > 25 µM | > 25 µM | > 25 µM | > 25 µM | > 25 µM | > 25 µM | > 25 µM | > 25 µM | > 25 µM | > 25 µM |
| COc1cc(/C=C2\CN(C)C/C(=C\c3cc(OC)c(OC)c(OC)c3)C2=O)cc(OC)c1OC | 0.154 µM | 0.335 µM | 0.774 µM | 2.8 µM | 1.01 µM | > 63.5 µM | 0.195 µM | 0.394 µM | 0.252 µM | 0.654 µM | 0.199 µM | 0.389 µM | 0.379 µM | 1.33 µM | 0.267 µM | 0.833 µM | 0.347 µM | 1.42 µM | 0.245 µM | 0.758 µM |
| O=C1C(=O)c2ccccc2-c2ccccc21 | 0.831 µM | 2.21 µM | 1.46 µM | 2.93 µM | 3.14 µM | 9.86 µM | 1.86 µM | 3.4 µM | 1.92 µM | 3.99 µM | 1.72 µM | 3.12 µM | 1.6 µM | 2.99 µM | 1.61 µM | 3.29 µM | 2.06 µM | 4.78 µM | 1.52 µM | 3.07 µM |
| CN1CCC[C@@H]1CCO[C@](C)(c1ccccc1)c1ccc(Cl)cc1 | 3.62 µM | 13.7 µM | 1.8 µM | 8.37 µM | 12.2 µM | 36 µM | 7.04 µM | 20.2 µM | 4.94 µM | 17.1 µM | 3.48 µM | 13.9 µM | 9.94 µM | 23.7 µM | 4.54 µM | 18.7 µM | 5.5 µM | 18.8 µM | 1.9 µM | 4.17 µM |
| Cc1c2c(nn1C(=O)c1nn(-c3ccc(Cl)cc3)cc1O)-c1ccccc1CC2 | 0.0339 µM | > 100 µM | 0.0521 µM | > 100 µM | 0.0201 µM | > 100 µM | 0.0632 µM | > 100 µM | 0.0237 µM | 0.0613 µM | 0.0441 µM | > 42.8 µM | 0.041 µM | 28.1 µM | 0.0403 µM | > 100 µM | 0.289 µM | > 100 µM | 0.218 µM | 9.73 µM |
| CNNCc1ccc(C(=O)NC(C)C)cc1 |  | > 500 µM | 459 µM | 391 µM and > 500 µM |  | > 500 µM |  | > 500 µM |  | > 500 µM | > 500 µM | > 500 µM |  | > 500 µM |  | > 500 µM |  | > 500 µM | > 500 µM | > 500 µM |
| N#CC(=S)Nc1ccc(Cl)c(Cl)c1 |  | > 50 µM |  | 9.59 µM | 11.3 µM | > 100 µM |  | > 95.6 µM | 16 µM | > 100 µM |  | 52.4 µM |  | 48.5 µM |  | > 68.5 µM |  | > 100 µM |  | > 54.7 µM |
| O=C(O)CC(Nc1ccccc1)C(=O)O (stereo not given) |  | > 100 µM |  | > 100 µM |  | > 100 µM |  | > 100 µM |  | > 100 µM |  | > 100 µM |  | > 100 µM |  | > 100 µM |  | > 100 µM |  | > 100 µM |
